# Experiments:
# Drosophila melanogaster = test: Two-choice bioassay: attraction to apple cider vinegar traps; format: in vivo; details: 20 h
# Experimental: Two-Choice Bioassay with Drosophila melanogaster: The two-choice assay (N=5) was conducted with an arena design using a dome cage (30 cm W×30 cm L×30 cm H; shop.bugdorm.com) as described in Cha et al. (2012) to evaluate the effect of 2-pentylfuran on D. melanogaster, vinegar fly, attraction to apple cider vinegar, a known attractant. The same gate cup trap design was used as described above in Multiple-Choice Bioassay section. Both traps had 20 ml of apple cider vinegar with soap. […] A cotton ball (3 cm diameter) soaked with distilled water was placed in the center of the arena to provide water to D. melanogaster. . Adult flies (˜50, roughly 1:1 male: female ratio, 7-10 days old) were released in each arena. The number of flies inside treatment and control traps was counted after 20 h.
# (§1) Statistical Analyses: Trap catch data from multiple-choice assay and two-choice assay were analyzed in a randomized block design with block as a random factor and different EAD-active compounds as a fixed factor using Poisson distribution with log link function and maximum likelihood estimation (Proc Glimmix, SAS Institute, SAS/STAT 9.2 User's Guide, Second Edition, 2009, SAS Institute Inc., Cary, N.C.). […]
# Drosophila suzukii = test: Field cage choice test: SWD oviposition on raspberries in deli cups; format: in vivo; details: two-choice field cage, 10 mg/h sachet, 24 h, N=4
# Experimental: Field cage choice test: We evaluated the effect of 2-pentylfuran released at 10 mg/h on SWD oviposition in choice oviposition experiment under semi-field condition using flies from SWD lab colony in Hawaii. For this experiment, we used a different, more user-friendly dispenser (polyethylene sachet: see Cha et al. 2017). The 10 mg/h release rate of 2-pentylfuran, inferred from calculating weight loss of loaded dispensers over time as described by Cha et al. 2017 (linear regression between weight of sachet containing 2-pentylfuran (mg) and time (h) during 30 h period: sachet weight=669.1[…]*time, R2=0.99, P<0.0001) was achieved using equilateral triangle shaped sachets made with two layers of polyethylene film (0.0508 mm thickness, Thermwell Products Co., Inc, Mahwah, N.J.) with 5 cm on each side. One 2 cm by 1 cm diameter piece of cotton dental wick was placed into the sachet and 1 ml of neat 2-pentylfuran was loaded onto the dental wick with a syringe. Loaded sachets were sealed using an Impulse heat-sealer (Model MP-12C, Midwest Pacific Inc., St. Louis). […]
# as §1, with “N.C.). Oviposition data from (1) laboratory dose-response test, (2) semi-field cage choice test, and (3) first and second field experiments were also analyzed in a randomized block design with block as a random factor and different 2-pentylfuran treatments as a fixed factor using Poisson distribution with log link function and maximum likelihood estimation.” for “N.C.).”
smiles,measurement,setting,value
CCCCCc1ccco1 [2-pentylfuran],effect on D. melanogaster attraction to apple cider vinegar,"Drosophila melanogaster; 2-pentylfuran 10 mg/h sachet in gated trap, N=5",significantly reduced
same,number of D. melanogaster captured in traps baited with apple cider vinegar and 2-pentylfuran,"Drosophila melanogaster; among five replications, 10 mg/h, 50~67 in ACV-only traps",one
same,reduction of SWD oviposition on raspberries,Drosophila suzukii; deli cups with 25% opening,85%
same,reduction of SWD oviposition on raspberries,Drosophila suzukii; deli cups with 50% opening,62%
same,reduction of SWD oviposition on raspberries,Drosophila suzukii; deli cups with 75% opening,75%

# Reference: patent US20210251228A1, “METHODS FOR REPELLING DROSOPHILA SPECIES USING 2-PENTYLFURAN” (The United States of America, as represented by the …, priority 2020, published 2021)
